Legend:
[1] = system: A549 human lung adenocarcinoma cells; assay: MTT cytotoxicity assay, A549; format: cell-based; settings: for IC50: Homo sapiens, A549, MTT, 24 h, read-out: IC50 A549 Cell Line; for cytotoxicity (in words): A549, at the concentrations used
Procedure: (§1) C6 Rat glioma and NIH/3T3 mouse embryonic fibroblast cells were incubated in Dulbecco’s Modified Eagle’s Medium (DMEM) (Sigma, Deisenhofen, Germany) supplemented with 10% fetal calf serum (Gibco, Paisley, UK). A549 Human lung adenocarcinoma cells were incubated in 90% RPMI supplemented with 10% fetal bovine serum (Gibco). […] Exponentially growing cells were plated at 2 × 10^4 cells/mL into 96-well microtiter tissue culture plates (Nunc, Roskilde, Denmark) and incubated for 24 h before the addition of the drugs (the optimum cell number for cytotoxicity assays was determined in preliminary experiments).
(§2) The level of cellular 3-(4,5-dimethylthiazol-2-yl)-2,5-diphenyltetrazolium bromide (MTT) (Sigma) reduction was quantified as previously described in the literature with small modifications. […] At the end of this period, MTT was added to a final concentration of 0.5 mg/mL and the cells were incubated for 4 h at 37 °C. After the medium was removed, the formazan crystals formed by MTT metabolism were solubilized by addition of 200 µL DMSO to each well and absorbance was read at 540 nm with a microtiter plate spectrophotometer (Bio-Tek Plate Reader, Winooski, VT, USA). Every concentration was repeated in three wells.

C6 rat glioma cells = assay: MTT cytotoxicity assay, C6; format: cell-based; settings: for IC50: Rattus norvegicus, C6, MTT, 24 h, read-out: IC50 C6 Cell Line; for cytotoxicity (in words): C6, at the concentrations used
Procedure: as §1, §2

[2] = system: NIH/3T3 mouse embryonic fibroblast cells; assay: MTT cytotoxicity assay, NIH/3T3; format: cell-based; settings: NIH3T3, 24 h, read-out: IC50 NIH/3T3 Cell Line
Procedure: C6 Rat glioma and NIH/3T3 mouse embryonic fibroblast cells were incubated in Dulbecco’s Modified Eagle’s Medium (DMEM) (Sigma, Deisenhofen, Germany) supplemented with 10% fetal calf serum (Gibco, Paisley, UK). A549 Human lung adenocarcinoma cells were incubated in 90% RPMI supplemented with 10% fetal bovine serum (Gibco). All media were supplemented with 100 IU/mL penicillin-streptomycin (Gibco) and cells were incubated at 37 °C in a humidified atmosphere of 95% air and 5% CO2. Exponentially growing cells were plated at 2 × 10^4 cells/mL into 96-well microtiter tissue culture plates (Nunc, Roskilde, Denmark) and incubated for 24 h before the addition of the drugs (the optimum cell number for cytotoxicity assays was determined in preliminary experiments). The stock solutions of the compounds were prepared in dimethyl sulfoxide (DMSO; Sigma Aldrich, Poole, UK) and further dilutions were made with fresh culture medium (the concentration of DMSO in the final culture medium was <0.1% which had no effect on the cell viability).
as §2

A549 cells [3] = assay: DNA synthesis inhibition (BrdU ELISA), A549; format: cell-based, human; settings: A549, compound at its IC50, 24 h
Procedure: (§3) The immunostaining procedure was carried out with specific anti-BrdU antibodies in the S-phase of the cell cycle. DNA synthesis inhibitory effects of all compounds were evaluated for 24 h. A549 and C6 cell lines were incubated with three different concentrations of the compounds that were determined according to their IC50 values. Cisplatin was used as a positive control.
(§4) Analysis of DNA synthesis was measured by a Cell Proliferation ELISA, BrdU (colorimetric) kit (Roche, Mannheim, Germany). This immunostaining procedure is based on measuring the incorporation of bromodeoxyuridine (BrdU) into nuclear DNA in place of thymidine during the S-phase of the cell cycle using specific anti-BrdU antibodies. […] Firstly cells were seeded into 96 well flat-bottomed microtiter plates at a density of 2 × 10^3. […] Microtiter plates were incubated at 37 °C in a 5% CO2/95% air humidified atmosphere for 24 h. Cells were labeled with 10 µL BrdU solution for 2 h and then fixed. Anti-BrdU-POD (100 µL) was added and incubated for 90 min. Finally, wells were washed with BPS and cells were incubated with substrate. Absorbance of the samples was measured with an ELX808-IU Bio-Tek apparatus at 492 nm. All experiments were repeated two times. For each compound dose, dublicate wells were used.

C6 cells [4] = assay: DNA synthesis inhibition (BrdU ELISA), C6; format: cell-based, rat; settings: C6, compound at its IC50, 24 h
Procedure: as §3, §4

AChE = AChE (Electrophorus electricus, UniProt O42275); assay: biochemical; format: biochemical; settings: for IC50: tested at 5–80 μg/mL
BuChE = BuChE (Homo sapiens, UniProt P06276); assay: BuChE inhibition, modified Ellman's method; format: biochemical; settings: for IC50: tested at 5–80 μg/mL
A549 cells [5] = assay: Annexin V-PI flow cytometry of apoptosis, A549; format: cell-based; settings: IC50 dose, 24 h
Procedure: (§5) Annexin V staining protocol was applied according to the manufacturer’s instructions (BD Pharmingen). The cells were then briefly washed with cold phosphate buffer saline (PBS) and suspended in a binding buffer at a concentration of 1 × 10^6 cells/mL. Then, 100 µL of this solution containing 1 × 10^5 cells was transferred to a 5 mL test tube. After 5 µL of Annexin-V and PI was added, the cells were incubated for 15 min at room temperature in the dark. Then 400 µL of 1x Binding Buffer was added to each tube and the cells were processed for data acquisition, and analyzed on a Becton–Dickinson FACS Aria using […] Version 6.1.1. Software (BD Biosciences, San Jose, CA, USA).

C6 cells [6] = assay: Annexin V-PI flow cytometry of apoptosis, C6; format: cell-based; settings: IC50 dose, 24 h
Procedure: as §5

A549 cells [7] = assay: Mitochondrial membrane potential (JC-1) flow cytometry, A549; format: cell-based, human; settings: IC50 dose, 24 h
Procedure: (§6) During apoptosis, several key events occur in mitochondria including the release of cytochrome c, changes in electron transport, and loss of mitochondrial transmembrane potential (ΔΨm). For this reason, ΔΨm is an important parameter of mitochondrial function in apoptosis.
(§7) The cells were seeded in six-well plates at a density of 10^5 cells/mL, and the IC50 dose of compounds 2, 5 and 10 was added to cells. The cells were incubated in 5% CO2 air-conditioned atmosphere at 37 °C. […] 5,5′,6,6′-Tetrachloro-1,1′,3,3′-tetraethylbenzimidazolylcarbocyanine iodide (JC-1) dye solution (1× assay buffer + JC-1 stock solution) was added to the cells. The stock solution was prepared by dissolving DMSO. Then the samples were incubated at a temperature of 37 °C for 10–15 min. After incubation, the cells were washed twice with an assay buffer and analyzed by BD FACS Aria Cell Sorter Software version 6.1.1 flow cytometry (BD Biosciences). The cells showing mitochondrial membrane potential disruption were determined as a percentage of all cells.

C6 cells [8] = assay: Mitochondrial membrane potential (JC-1) flow cytometry, C6; format: cell-based, rat; settings: IC50 dose, 24 h
Procedure: as §6, §7

Sequence of AChE (O42275 24-633): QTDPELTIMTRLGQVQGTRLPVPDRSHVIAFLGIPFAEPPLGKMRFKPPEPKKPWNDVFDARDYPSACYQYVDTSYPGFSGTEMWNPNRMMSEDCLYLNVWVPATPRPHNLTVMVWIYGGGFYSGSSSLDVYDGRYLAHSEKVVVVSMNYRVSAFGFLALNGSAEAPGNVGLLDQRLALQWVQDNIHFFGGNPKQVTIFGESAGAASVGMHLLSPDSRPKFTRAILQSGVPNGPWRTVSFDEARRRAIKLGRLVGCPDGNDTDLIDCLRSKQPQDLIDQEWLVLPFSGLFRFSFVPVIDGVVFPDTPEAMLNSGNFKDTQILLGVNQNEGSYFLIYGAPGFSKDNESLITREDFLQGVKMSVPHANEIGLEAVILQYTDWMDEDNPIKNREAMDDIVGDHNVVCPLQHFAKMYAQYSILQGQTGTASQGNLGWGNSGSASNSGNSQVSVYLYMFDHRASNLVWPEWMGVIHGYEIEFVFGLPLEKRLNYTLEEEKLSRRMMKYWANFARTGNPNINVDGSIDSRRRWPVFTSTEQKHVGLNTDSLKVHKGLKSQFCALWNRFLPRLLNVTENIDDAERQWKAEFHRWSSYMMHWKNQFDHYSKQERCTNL
Sequence of BuChE (P06276 29-602): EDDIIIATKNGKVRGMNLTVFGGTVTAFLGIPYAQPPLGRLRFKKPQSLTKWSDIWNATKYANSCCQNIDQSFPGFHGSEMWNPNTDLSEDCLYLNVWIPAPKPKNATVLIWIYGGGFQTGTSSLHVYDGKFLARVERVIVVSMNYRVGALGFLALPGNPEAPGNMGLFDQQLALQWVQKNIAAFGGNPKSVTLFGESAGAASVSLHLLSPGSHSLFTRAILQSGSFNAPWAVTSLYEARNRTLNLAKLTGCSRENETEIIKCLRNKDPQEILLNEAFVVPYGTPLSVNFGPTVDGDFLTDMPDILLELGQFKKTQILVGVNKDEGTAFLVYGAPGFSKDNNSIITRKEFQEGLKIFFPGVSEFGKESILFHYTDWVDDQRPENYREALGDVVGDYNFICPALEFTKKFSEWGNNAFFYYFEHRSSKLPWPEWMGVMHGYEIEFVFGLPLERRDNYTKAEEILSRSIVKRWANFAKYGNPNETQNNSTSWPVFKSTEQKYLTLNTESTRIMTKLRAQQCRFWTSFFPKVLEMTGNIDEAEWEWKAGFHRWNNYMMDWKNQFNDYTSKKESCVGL

SMILES	IC50 [1] [µM]	IC50 (C6 rat glioma cells) [µM]	IC50 [2] [µM]	DNA synthesis inhibition percent (A549 cells [3]) [%]	DNA synthesis inhibition percent (C6 cells [4]) [%]	inhibitory activity against AChE (in words) (AChE)	IC50 (AChE) [µM]	IC50 (BuChE) [µM]	cytotoxicity (in words) [1]	cytotoxicity (in words) (C6 rat glioma cells)	Early and Late Apoptotic Cells % A549 Cells (A549 cells [5]) [%]	Viability % A549 Cells (A549 cells [5]) [%]	Early and Late Apoptotic Cells % C6 Cells (C6 cells [6]) [%]	Viability % C6 Cells (C6 cells [6]) [%]	P2 (%) mitochondrial membrane polarized cells, A549 Cells (A549 cells [7]) [%]	P3 (%) mitochondrial membrane depolarized cells, A549 Cells (A549 cells [7]) [%]	P2 (%) mitochondrial membrane polarized cells, C6 Cells (C6 cells [8]) [%]	P3 (%) mitochondrial membrane depolarized cells, C6 Cells (C6 cells [8]) [%]	inhibition on BuChE (in words) (BuChE)
N#Cc1ccc(C=NNC(=S)Nc2ccc3c(c2)OCO3)cc1 [Compound 3, 4-(1,3-Benzodioxole-5-yl)-1-(4-cyanobenzylidene)thiosemicarbazide]	28 ± 1	49.3 ± 1.15	> 154	53.24	54.99	did not show any inhibitory activity	> 213	> 213	–	–	–	–	–	–	–	–	–	–	–
S=C(NN=Cc1ccccc1)Nc1ccc2c(c1)OCO2 [Compound 1, 4-(1,3-Benzodioxole-5-yl)-1-(benzylidene)thiosemicarbazide]	> 167	> 167	> 167	–	–	–	> 267	> 213	no significant cytotoxicity	no significant cytotoxicity	–	–	–	–	–	–	–	–	–
O=[N+]([O-])c1ccc(C=NNC(=S)Nc2ccc3c(c2)OCO3)cc1 [Compound 2, 4-(1,3-Benzodioxole-5-yl)-1-(4-nitrobenzylidene)thiosemicarbazide]	24 ± 3.46	23.3 ± 2.08	> 145	59.85	63.34	–	> 232	> 213	–	–	23.7	75.2	5.4	94.5	4.5	9.8	44.8	21.1	–
S=C(N/N=C/c1cc2c(cc1Br)OCO2)Nc1ccc2c(c1)OCO2 [Compound 10]	29.7 ± 5.51	12.3 ± 4.93	38.3 ± 2.08	56.38	53.96	–	108 ± 3.53	> 189	–	–	6.2	81.2	15.8	69.6	21.9	57.9	35.1	63.7	weak inhibition
S=C(NN=Cc1ccc(Br)cc1)Nc1ccc2c(c1)OCO2 [Compound 8, 4-(1,3-Benzodioxole-5-yl)-1-(4-bromobenzylidene)thiosemicarbazide]	> 132	> 132	9.16 ± 2.47	–	–	–	> 212	> 212	no significant cytotoxicity	no significant cytotoxicity	–	–	–	–	–	–	–	–	weak inhibition
S=C(NN=Cc1ccc(Cl)cc1)Nc1ccc2c(c1)OCO2 [Compound 7, 4-(1,3-Benzodioxole-5-yl)-1-(4-chlorobenzylidene)thiosemicarbazide]	> 150	> 150	9.5 ± 2.5	–	–	–	> 240	> 240	no significant cytotoxicity	no significant cytotoxicity	–	–	–	–	–	–	–	–	weak inhibition
CN(C)c1ccc(C=NNC(=S)Nc2ccc3c(c2)OCO3)cc1 [Compound 4, 4-(1,3-Benzodioxole-5-yl)-1-(4-dimethylaminobenzylidene)thiosemicarbazide]	> 146	> 146	> 146	–	–	–	> 234	> 213	no significant cytotoxicity	no significant cytotoxicity	–	–	–	–	–	–	–	–	–
S=C(NN=Cc1ccc(-c2ccccc2)cc1)Nc1ccc2c(c1)OCO2 [Compound 5, 4-(1,3-Benzodioxole-5-yl)-1-[(biphenyl-4-yl)methylene]thiosemicarbazide]	10.7 ± 1.53	4.33 ± 1.04	21.3 ± 5.77	57.79	62.98	did not show any inhibitory activity	> 213	> 213	–	–	12.11	81.8	25.0	60.2	52.7	24.6	49.8	45.0	–
S=C(NN=Cc1ccc(Cl)c(Cl)c1)Nc1ccc2c(c1)OCO2 [Compound 9, 4-(1,3-Benzodioxole-5-yl)-1-(3,4-dichlorobenzylidene)thiosemicarbazide]	51.5 ± 4.95	25.3 ± 1.53	> 136	27.3	37.71	–	205 ± 5	> 213	–	–	–	–	–	–	–	–	–	–	–
Fc1ccc(C=NNC(=S)Nc2ccc3c(c2)OCO3)cc1 [Compound 6, 4-(1,3-Benzodioxole-5-yl)-1-(4-fluorobenzylidene)thiosemicarbazide]	> 158	> 158	2.87 ± 0.05	–	–	–	> 252	> 213	no significant cytotoxicity	no significant cytotoxicity	–	–	–	–	–	–	–	–	–

Reference: paper PMC6273715, “Synthesis and Evaluation of New Benzodioxole- Based Thiosemicarbazone Derivatives as Potential Antitumor Agents” (Molecules, 2016)
